The source of these data is patent US20200131669A1, “CYCLIC PEPTIDE COMPOUND HAVING HIGH MEMBRANE PERMEABILITY, AND LIBRARY CONTAINING SAME” (Chugai Seiyaku Kabushiki Kaisha, priority 2017, published 2020).

Starred links: 1 amine or outer side, 2 acyl side, 3 side chain; linkers in the order of their positions; H or OH if unused. Positions of bridges follow the written chain, without caps; N, C: chain ends. Non-standard residues stand in square brackets, D forms with d. Residues, ends and D or L forms follow the SMILES beside them. *: point of attachment. NMeAbu(3,3-F2-piperidino) = CN[C@@H](CCN1CCCC(F)(F)C1)C(=O)O; Phe(4-CF3) = N[C@@H](Cc1ccc(C(F)(F)F)cc1)C(=O)O; Hyp = O=C(O)[C@@H]1C[C@@H](O)CN1; NMeF = CN[C@@H](Cc1ccccc1)C(=O)O; NMeGABA = CN(CCCC(=O)[*:2])[*:1]; NMeI = CC[C@H](C)[C@H](NC)C(=O)O; NMeD = CN[C@@H](CC(=O)O)C(=O)O; NMeL = CN[C@@H](CC(C)C)C(=O)O; dNMeL = CN[C@H](CC(C)C)C(=O)O; NMeNva = CCC[C@H](NC)C(=O)O; NMeV = CN[C@H](C(=O)O)C(C)C; Pip = O=C(O)[C@@H]1CCCCN1; NMeA = CN[C@@H](C)C(=O)O; Piperidide = C1CCN(*)CC1; dAbu = CC[C@@H](N)C(=O)O; dNMeA = CN[C@H](C)C(=O)O; NBuGly = CCCCNCC(=O)O; Sar = CNCC(=O)O; tBu = CC(C)(C)*

This data set is described as follows: Caco-2 membrane permeability, improved method as used in the following Examples (96-well, 20 to 24 h preincubation). Type of data set: in vitro ADME. Particulars: human, Caco-2, Caco-2. The method, boiled down: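 Papp (cm/sec) was derived from LC/MS of basal samples collected 180 min after apical dosing in FaSSIF/HBSS pH 6.0 with 1% DMSO, against a basal HBSS pH 7.4 receiver containing 4% BSA. Three-week Caco-2 cultures were first preincubated with compound in DMEM+FaSSIF at 37 °C for 20–24 h.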
On to `CCO[C@@H]1C[C@H]2C(=O)N(C)[C@@H](CC(C)C)C(=O)N[C@@H]([C@@H](C)O)C(=O)N(C)[C@@H](Cc3ccccc3)C(=O)N[C@@H](Cc3ccccc3)C(=O)N(C)[C@@H](CC(C)C)C(=O)N(C)[C@H](C(=O)N3CCCCC3)CC(=O)N[C@@H](C)C(=O)N(C)[C@@H](C(C)C)C(=O)N[C@@H](COC(C)(C)C)C(=O)N(C)[C@@H](CC(C)C)C(=O)N2C1` [pd373] (A[NMeV]S(tBu)[NMeL][Hyp](Et)[NMeL]T[NMeF]F[NMeL][NMeD]-Piperidide; lactam N-11), for which the Papp A→B at 180 min was 2 ×10⁻⁶ cm/s. The result for `CCO[C@@H]1C[C@H]2C(=O)N[C@H](C(=O)N3CCCCC3)CC(=O)N[C@@H](C(C)C)C(=O)NCC(=O)N(C)[C@@H](CC(C)C)C(=O)N(C)[C@@H](CC(C)C)C(=O)N(C)[C@@H](CC(C)C)C(=O)N(C)[C@@H](Cc3ccccc3)C(=O)N[C@@H]([C@@H](C)O)C(=O)N(C)[C@@H](Cc3ccccc3)C(=O)N(C)[C@@H](CC(C)C)C(=O)N2C1` [pd374] (VG[NMeL][NMeL][NMeL][NMeF]T[NMeF][NMeL][Hyp](Et)D-Piperidide; lactam N-11) reads 2.5 ×10⁻⁶ cm/s. As to `CCO[C@@H]1C[C@H]2C(=O)N[C@@H](Cc3ccccc3)C(=O)N(C)[C@@H](CC(C)C)C(=O)N[C@H](C(=O)N3CCCCC3)CC(=O)N[C@H](CC)C(=O)N(C)[C@@H](CC(C)C)C(=O)N[C@@H](COC(C)(C)C)C(=O)N(C)[C@@H](CC(C)C)C(=O)N[C@@H](CC(C)C)C(=O)N(C)[C@@H](CC(C)C)C(=O)N[C@@H]([C@@H](C)O)C(=O)N2C1` [pd375] ([dAbu][NMeL]S(tBu)[NMeL]L[NMeL]T[Hyp](Et)F[NMeL]D-Piperidide; lactam N-11), the apparent permeability from apical to basolateral (Papp A→B) at 180 min worked out at 2.9 ×10⁻⁶ cm/s. The same measure for `CCO[C@@H]1C[C@H]2C(=O)N(C)[C@@H](C(C)C)C(=O)N[C@@H]([C@@H](C)O)C(=O)N(C)[C@@H](Cc3ccccc3)C(=O)N[C@@H](Cc3ccccc3)C(=O)N(C)[C@@H](CC(C)C)C(=O)N(C)[C@H](C(=O)N3CCCCC3)CC(=O)N3CCC[C@H]3C(=O)N(C)[C@@H](C(C)C)C(=O)N[C@@H](COC(C)(C)C)C(=O)N(C)[C@@H](CC(C)C)C(=O)N2C1` [pd376] (P[NMeV]S(tBu)[NMeL][Hyp](Et)[NMeV]T[NMeF]F[NMeL][NMeD]-Piperidide; lactam N-11): 2.4 ×10⁻⁶ cm/s; for `CCO[C@@H]1C[C@H]2C(=O)N(C)[C@@H](CC(C)C)C(=O)N[C@@H]([C@@H](C)O)C(=O)N(C)[C@@H](CC(C)C)C(=O)N(C)[C@@H](C(C)C)C(=O)N[C@@H](Cc3ccc(C(F)(F)F)cc3)C(=O)N3CCCC[C@H]3C(=O)N[C@@H](CC(C)C)C(=O)N[C@H](C(=O)N3CCCCC3)CC(=O)N(C)[C@H](C)C(=O)N(C)[C@@H](CC(C)C)C(=O)N2C1` [pd377] ([dNMeA][NMeL][Hyp](Et)[NMeL]T[NMeL][NMeV][Phe(4-CF3)][Pip]LD-Piperidide; lactam N-11): 1.4 ×10⁻⁶ cm/s; for `CCO[C@@H]1C[C@H]2C(=O)N[C@@H](COC(C)(C)C)C(=O)N(C)[C@@H](CC(C)C)C(=O)N(C)[C@@H](CC(C)C)C(=O)N3CCC[C@H]3C(=O)N[C@@H]([C@@H](C)O)C(=O)N(C)[C@@H](Cc3ccccc3)C(=O)N[C@@H](Cc3ccccc3)C(=O)N(C)[C@@H](CC(C)C)C(=O)N[C@H](C(=O)N3CCCCC3)CC(=O)N[C@H](CC(C)C)C(=O)N2C1` [pd378] ([dL][Hyp](Et)S(tBu)[NMeL][NMeL]PT[NMeF]F[NMeL]D-Piperidide; lactam N-11): 1.2 ×10⁻⁶ cm/s.

Take `CCC[C@H]1C(=O)N[C@@H](COC(C)(C)C)C(=O)N(C)[C@@H](CC(C)C)C(=O)N(C)[C@@H](CC(C)C)C(=O)N[C@@H](CC(C)C)C(=O)N[C@@H]([C@@H](C)O)C(=O)N2C[C@H](OCC)C[C@H]2C(=O)N[C@@H](Cc2ccccc2)C(=O)N(C)[C@@H](CC(C)C)C(=O)N[C@H](C(=O)N2CCCCC2)CC(=O)N[C@H](C(C)C)C(=O)N1C` [pd380] ([dV][NMeNva]S(tBu)[NMeL][NMeL]LT[Hyp](Et)F[NMeL]D-Piperidide; lactam N-11): the Papp A→B at 180 min is 3.8 ×10⁻⁶ cm/s.

The compound `CCC[C@H]1C(=O)N[C@@H](CC(C)C)C(=O)N(C)[C@@H](CC(C)C)C(=O)N[C@@H]([C@@H](C)O)C(=O)N2C[C@H](OCC)C[C@H]2C(=O)N(C)[C@@H](CC(C)C)C(=O)N[C@@H]([C@@H](C)CC)C(=O)N(C)[C@@H](CC(C)C)C(=O)N2CCC[C@H]2C(=O)N[C@H](C(=O)N2CCCCC2)CC(=O)N(C)[C@H](CC(C)C)C(=O)N1C` [pd381] ([dNMeL][NMeNva]L[NMeL]T[Hyp](Et)[NMeL]I[NMeL]PD-Piperidide; lactam N-11) had an apparent permeability from apical to basolateral (Papp A→B) at 180 min of 5.6 ×10⁻⁶ cm/s. The result for `CCC[C@H]1C(=O)N[C@@H](CC(C)C)C(=O)N(C)[C@@H](CC(C)C)C(=O)N[C@@H]([C@@H](C)O)C(=O)N2CCC[C@H]2C(=O)N(C)[C@@H](CC(C)C)C(=O)N[C@@H]([C@@H](C)CC)C(=O)N(C)[C@@H](CC(C)C)C(=O)N2C[C@H](OCC)C[C@H]2C(=O)N[C@H](C(=O)N2CCCCC2)CC(=O)N(C)[C@H](CC(C)C)C(=O)N1C` [pd382] ([dNMeL][NMeNva]L[NMeL]TP[NMeL]I[NMeL][Hyp](Et)D-Piperidide; lactam N-11) reads 4.8 ×10⁻⁶ cm/s. The same measure for `CCO[C@@H]1C[C@H]2C(=O)N3CCCC[C@H]3C(=O)N[C@@H](COC(C)(C)C)C(=O)N(C)[C@@H](CC(C)C)C(=O)N[C@@H]([C@@H](C)O)C(=O)N(C)[C@@H](CC(C)C)C(=O)N(C)[C@@H](CC(C)C)C(=O)N(C)[C@@H](CC(C)C)C(=O)N[C@H](C(=O)N3CCCCC3)CC(=O)N[C@H](C(C)C)C(=O)N(C)[C@@H]([C@@H](C)CC)C(=O)N2C1` [pd383] ([dV][NMeI][Hyp](Et)[Pip]S(tBu)[NMeL]T[NMeL][NMeL][NMeL]D-Piperidide; lactam N-11): 2.8 ×10⁻⁶ cm/s.

`CCO[C@@H]1C[C@H]2C(=O)N(C)[C@@H](CC(C)C)C(=O)N[C@@H](COC(C)(C)C)C(=O)N3CCC[C@H]3C(=O)N[C@@H]([C@@H](C)O)C(=O)N(C)[C@@H](CC(C)C)C(=O)N(C)[C@@H](CC(C)C)C(=O)N(C)[C@@H](CC(C)C)C(=O)N[C@H](C(=O)N3CCCCC3)CC(=O)N[C@H](CC(C)C)C(=O)N(C)[C@@H]([C@@H](C)CC)C(=O)N2C1` [pd384] ([dL][NMeI][Hyp](Et)[NMeL]S(tBu)PT[NMeL][NMeL][NMeL]D-Piperidide; lactam N-11) had an apical-to-basolateral permeability (Papp A→B) at 180 min of 3.3 ×10⁻⁶ cm/s. With `CCO[C@@H]1C[C@H]2C(=O)N[C@@H]([C@@H](C)O)C(=O)N(C)[C@@H](CC(C)C)C(=O)N(C)[C@@H](CC(C)C)C(=O)N(C)[C@@H](CC(C)C)C(=O)N[C@H](C(=O)N3CCCCC3)CC(=O)N[C@H](CC(C)C)C(=O)N(C)[C@@H]([C@@H](C)CC)C(=O)N3CCC[C@H]3C(=O)N(C)[C@@H](CC(C)C)C(=O)N[C@@H](COC(C)(C)C)C(=O)N2C1` [pd385] ([dL][NMeI]P[NMeL]S(tBu)[Hyp](Et)T[NMeL][NMeL][NMeL]D-Piperidide; lactam N-11), the Papp A→B at 180 min was determined as 3.4 ×10⁻⁶ cm/s. The result for `CCCCN1CC(=O)N(C)[C@@H](CC(C)C)C(=O)N[C@@H](COC(C)(C)C)C(=O)N(C)[C@@H](Cc2ccccc2)C(=O)N(C)[C@@H](C(C)C)C(=O)N[C@H](C(=O)N2CCCCC2)CC(=O)N[C@H](C)C(=O)N(C)[C@@H](Cc2ccccc2)C(=O)N[C@@H](CC(C)C)C(=O)N(C)[C@@H](CCN2CCCC(F)(F)C2)C(=O)N[C@@H]([C@@H](C)O)C1=O` [pd386] ([dA][NMeF]L[NMeAbu(3,3-F2-piperidino)]T[NBuGly][NMeL]S(tBu)[NMeF][NMeV]D-Piperidide; lactam N-11) reads 2.3 ×10⁻⁶ cm/s; that for `CC(C)C[C@@H]1NC(=O)[C@H](Cc2ccccc2)N(C)C(=O)[C@@H](C(C)C)NC(=O)C[C@@H](C(=O)N2CCCCC2)NC(=O)[C@H](C(C)C)N(C)C(=O)[C@H](Cc2ccccc2)N(C)C(=O)[C@H](COC(C)(C)C)NC(=O)[C@H](CCN2CCCC(F)(F)C2)N(C)C(=O)CN(C)C(=O)[C@H]([C@@H](C)O)NC(=O)[C@H](CC(C)C)N(C)C1=O` [pd387] ([dV][NMeF]L[NMeL]T[Sar][NMeAbu(3,3-F2-piperidino)]S(tBu)[NMeF][NMeV]D-Piperidide; lactam N-11), 3.5 ×10⁻⁶ cm/s; that for `CCCCN1CC(=O)N(C)[C@@H](C(C)C)C(=O)N[C@@H](CC(C)C)C(=O)N(C)[C@@H](Cc2ccccc2)C(=O)N(C)[C@@H](CCN2CCCC(F)(F)C2)C(=O)N[C@H](C(=O)N2CCCCC2)CC(=O)N[C@H](C)C(=O)N(C)[C@@H](Cc2ccccc2)C(=O)N[C@@H](CC(C)C)C(=O)N(C)[C@@H](CC(C)C)C(=O)N[C@@H]([C@@H](C)O)C1=O` [pd388] ([dA][NMeF]L[NMeL]T[NBuGly][NMeV]L[NMeF][NMeAbu(3,3-F2-piperidino)]D-Piperidide; lactam N-11), 1.8 ×10⁻⁶ cm/s.

Compound `CC(C)C[C@@H]1NC(=O)[C@H](Cc2ccccc2)N(C)C(=O)[C@H](Cc2ccccc2)N(C)C(=O)[C@H](CC(C)C)NC(=O)[C@H](CC(C)C)N(C)C(=O)CCCN(C)C(=O)C[C@@H](C(=O)N2CCCCC2)NC(=O)[C@H](C)N(C)C(=O)[C@H](CCN2CCCC(F)(F)C2)N(C)C(=O)[C@H]([C@@H](C)O)NC(=O)[C@H](CC(C)C)N(C)C1=O` [pd390] ([NMeGABA][NMeL]L[NMeF][NMeF]L[NMeL]T[NMeAbu(3,3-F2-piperidino)][NMeA]D-Piperidide; lactam N-11) returned a Papp A→B at 180 min of 2 ×10⁻⁶ cm/s.
